Columns and labels:
[1] = test system: corneal vascularization elicited by bFGF or VEGF; conditions: compared to the R-form or racemic form (NPL 6); cited from earlier work
[2] = Stability of lenalidomide in different solvents (HPLC peak areas of the enantiomers); assay type: physicochemical; conditions: 0.5 mg/mL racemic mixture, room temperature or 50° C., 24 hours
Description: A racemic mixture of 0.5 mg/mL lenalidomide in methanol, ethanol, isopropanol, acetonitrile or ethyl acetate, as the sample (product of Selleck Chemicals, US) was incubated at room temperature or at 50° C. for 24 hours, and the following HPLC conditions were employed for quantification of the lenalidomide enantiomers, for evaluation of the stability of lenalidomide in the different solvents.
(§1) Apparatus: Nanospace SI-2 Series (Shiseido Corp.)
Mobile phase: EtOH (100%)
Injection volume: 5 μL, Detection: UV 230 nm.
The peak areas for the enantiomers before and after incubation are shown in FIG. 1 (the initially observed peaks are enantiomer 1, and the next observed peaks are enantiomer 2). […] Lenalidomide was also stable even in isopropanol.

[3] = test system: recurrent intractable multiple myeloma; conditions: in combination with dexamethasone; cited from earlier work
[4] = Dependence of racemization of lenalidomide enantiomers on pH in aqueous buffers at room temperature; assay type: physicochemical
[5] = human blood plasma (NPL 10); cited from earlier work
[6] = NPL 5; cited from earlier work
[7] = Racemization half-life in human serum (37° C.); conditions: for racemization half-life in serum, times longer than the corresponding TD enantiomer: human serum, 37° C.; for half-life in human serum compared to buffer: pH 7.4
Source text: The analysis method of the invention is shown as FIG. 15(b). The acid used to suspend the reaction while simultaneously precipitating and removing the protein was HClO4.
as §1

[8] = Racemization half-life under biological buffer conditions (Na-phosphorate buffer pH 7.4, 37° C.); conditions: average of 3 tests ± SD

With “3-amino-phthalimide-glutarimide [S-pomalidomide]” as the molecule, how does the “inhibition of corneal vascularization” value [1] read?
The value was “significantly inhibit”.

With Nc1cccc2c1CN(C1CCC(=O)NC1=O)C2=O (racemic) [lenalidomide, Lenalidomide] as the molecule, how does the “stability in solvent (decomposition)” value ([2]; acetonitrile and ethyl acetate) read?
The value was “no decomposition was observed”.

What about the stability in solvent ([2]; isopropanol) of the same molecule?
Its stability in solvent is “stable”.

What about the stability in solvent ([2]; methanol and ethanol) of the same molecule?
The stability in solvent was “highly unstable”.

What about the success rate [3] of the same molecule?
Its success rate is 60%.

What about the “stability of the enantiomers” value ([4]; acidic conditions (<pH 4)) of the same molecule?
Its value is “stable”.

What about the “increase of racemization half-life for every pH reduction of 1” value ([4]; aqueous buffers pH 4 to 9, room temperature) of the same molecule?
The value was 10 times.

And the racemization half-life ([4]; pH 4, room temperature)?
Its racemization half-life is “estimation of the half-life was no longer possible”.

What about the “racemization and decomposition (peak areas) in aqueous buffer” value ([4]; pH 9 and 8, room temperature) of the same molecule?
Its value is “racemization and decomposition of LL takes place”.

For O=C1CCC(N2C(=O)c3ccccc3C2=O)C(=O)N1 (racemic) [thalidomide], which “racemization half-life in human blood plasma” value [5] is on record?
The value was “approximately 10 minutes”.

And the sedative action [6]?
Its sedative action is “only been reported with the R-form”.

Which “racemization half-life in serum, times longer than the corresponding TD enantiomer” value [7] does the source give for Nc1cccc2c1CN([C@@H]1CCC(=O)NC1=O)C2=O (single isomer, unassigned) [(R*)-LL] here?
The value was 3 times.

And the “racemization half-life in human serum” value [7]?
Its value is 1.82 ± 0.0333 h.

What about the “racemization half-life in aqueous buffer” value [8] of the same molecule?
Its value is 4.45 ± 0.0183 h.

Which “racemization half-life in serum, times longer than the corresponding TD enantiomer” value [7] does the source give for Nc1cccc2c1CN([C@H]1CCC(=O)NC1=O)C2=O (single isomer, unassigned) [(S*)-LL] here?
The value was 6 times.

And the “racemization half-life in human serum” value [7]?
Its value is 2.18 ± 0.0817 h.

What about the “racemization half-life in aqueous buffer” value [8] of the same molecule?
The value was 4.53 ± 0.0217 h.

What about the “racemization on incubation in aqueous buffer” value ([4]; pH 6, room temperature) of the same molecule?
The value was “A small amount of (R*)-LL was produced”.

What about the “racemization on incubation in aqueous buffer” value ([4]; pH 7 and higher, room temperature) of the same molecule?
The value was “racemization was significantly accelerated”.

Which “racemization half-life in human serum” value [7] does the source give for O=C1CC[C@@H](N2C(=O)c3ccccc3C2=O)C(=O)N1 [(R)-TD, R-thalidomide] here?
Its value is 0.548 ± 0.417 h.

What about the “half-life in human serum compared to buffer” value [7] of the same molecule?
The value was 11.1%.

What about the “racemization half-life in aqueous buffer” value [8] of the same molecule?
Its value is 4.92 ± 0.4 h.

For O=C1CC[C@H](N2C(=O)c3ccccc3C2=O)C(=O)N1 [(S)-TD, S-thalidomide], which “racemization half-life in human serum” value [7] is on record?
Its value is 0.363 ± 0.0167 h.

And the “half-life in human serum compared to buffer” value [7]?
Its value is 8.2%.

What about the “racemization half-life in aqueous buffer” value [8] of the same molecule?
The value was 4.43 ± 0.167 h.

Source: patent US10725057B2, “Method for pretreatment and method for analysis of lenalidomide in biological sample” (Shiseido Company, Ltd, priority 2014, dated 2020)
